“Also recorded” adds a separate entry of the source. Like-named read-outs stand apart in the source and are kept apart here.

In data set [1] the test system is HaCaT cells. Put plainly: Antiproliferative activity against HaCaT cells (CCK-8). The data set is classed as cell-based. To be noted: Homo sapiens, HaCaT, read-out: IC50 against the proliferation of HaCaT cells. The protocol:
(§1) As previously described, the immunosuppressive activity, lymphocyte viability, and antiproliferative activity against HaCaT cells were evaluated using the CCK-8 method ([Zhao et al. 2023], [2024]).
(§2) In the immunosuppressive and lymphocyte viability, the primary tested concentration of all compounds was 20.0 μM, and dexamethasone (Dex) (c = 2.0 μM) was used as a positive control. In the antiproliferative activity against HaCaT cells, the primary tested concentration of all compounds was 40 μM, and the positive control was methotrexate (MTX) (c = 40.0 μM). When the inhibition rates are greater than 50%, the IC50 values of active compounds will be further tested and calculated. All experiments were performed in triplicate.

Data set [2] relates to NF-κB p65 phosphorylation. The experiment in a line: Immunofluorescence of p-p65/p65 in HaCaT cells. Format: cell-based. The conditions noted are these: 36 h. How it is done:
The immunofluorescence protocol was performed using the reported method ([Zhao et al. 2024]). HaCaT cells (2.0 × 10^5 cells/well) were plated onto 6-well plates with glass coverslips and adhered overnight (12 h) before compound addition. After treatment with active compounds 10 (final concentration 31 μM) and 32 (final concentration 27 μM) for 36 h, the supernatant was removed, and the cells were washed twice with PBS, fixed with 4% paraformaldehyde for 15 min, and then washed with PBS three times. After blocking, incubated with NF-κB p65 (p65)/phosphorylated NF-κB p65 (p-p65) antibodies and secondary antibodies (Servicebio, China). Then, cells were counterstained with 4,6-[…]-2-phenylindole (DAPI) for 5 min. After the PBS washing, fluorescent seal liquid was added, and the plate was monitored under an imaging system (Pannoramic MIDI, 3Dhistech, Hungary). The nucleus is blue, and positive cells are green (p-p65) or red (p65). The immunofluorescence areas for each indicator were analyzed in ImageJ.

Data set [3] in a line: Lymphocyte viability (CCK-8). The data set is classed as cell-based, mouse. The conditions noted are these: mouse, lymphocytes; lymphocyte viability; CCK-8. How it is done: as §1, §2
The subject of data set [4] is LPS-induced B lymphocytes. Put plainly: Anti-proliferative activity against LPS-induced B lymphocytes (CCK-8). The data set is classed as cell-based, mouse. To be noted: for IC50: induced proliferation of B lymphocytes (LPS), CCK-8, read-out: B cells IC50. How it is done: as §1, §2
Data set [5] has as its system HaCaT cells. Put plainly: EdU proliferation assay, HaCaT cells. The data set is classed as cell-based. To be noted: c = 20 μM; compared to the control group. How it is done:
(§3) EdU fluorescence labeling for cell proliferation of induced T/B lymphocytes (2 × 10^5 cells/well) and HaCaT cells (1 × 10^4 cells/well) of active compounds 10, 19, 23, 32, 38, and 41 (final concentration 10 or 20 μM) was performed as previously reported ([Biram and Shulman 2020]; [Zhao et al. 2024]). EdU (HF488) (the Click-iT™ EdU Flow Cytometry Assay Kit, APExBIO, USA) was added 24 h (final concentration 50 μM, T and B cells) and 4 h (final concentration 10 μM, HaCaT cells) before harvesting the cells. All procedures were performed according to the manufacturer’s instructions for the click reaction. EdU-positive cells and proliferating phase cells were analyzed with a fluorescence microscope.

Data set [6] concerns ConA-induced T lymphocytes. Put plainly: Anti-proliferative activity against ConA-induced T lymphocytes (CCK-8). The data set is classed as cell-based. To be noted: Mus musculus, T-lymphocyte; for IC50: induced proliferation of T lymphocytes (ConA), CCK-8, read-out: T cells IC50. How it is done: as §1, §2
For data set [7], the system named is ConA-induced T lymphocytes. Described as above. The conditions noted are these: Mus musculus, T-lymphocyte, c = 40 μM, read-out: Inhibition rate (%) T. The data set is classed as cell-based.
The test system of the next data set is IL-2. The experiment in a line: Cytokine analysis by ELISA of induced T cells: IL-2. Format: cell-based, mouse. To be noted: 40 μM; ConA-induced T cells, 48 h; P < 0.01 vs. model. The protocol:
(§4) The mononuclear cell suspensions (2 × 10^5 cells/well) were cultured with ConA (5 μg/mL) in 96-well plates, and indicated concentrations of compounds 2, 15, and 32 were added simultaneously. After a 48-hour culture period, cytokines in the supernatants were quantified using mouse IFN-γ, IL-2, and IL-17A ELISA kits (Mabtech, Sweden), following the manufacturer’s protocol ([Jing et al. 2021]; [Zhao et al. 2024]).
On the technique in general: In an ELISA, binding on a coated surface is turned into a signal by an enzyme label.

Data set [8] deals with lymphocytes. Put plainly: Lymphocyte viability (CCK-8). Format: cell-based, mouse. The conditions noted are these: c = 40 μM.
The test system of a further data set is IFN-γ. Put plainly: Cytokine analysis by ELISA of induced T cells: IFN-γ. The data set is classed as cell-based, mouse. To be noted: ConA-induced T cells, 48 h; all sample groups; P < 0.0001 vs. model. How it is done:
as §4

Data set [9] has as its system lymphocytes. Put plainly: Lymphocyte viability (CCK-8). To be noted: c = 20 μM. The data set is classed as cell-based, mouse. The protocol: as §1, §2
Data set [10] concerns LPS-induced B lymphocytes. Put plainly: Anti-proliferative activity against LPS-induced B lymphocytes (CCK-8). The data set is classed as cell-based. To be noted: Mus musculus, Lymphocyte, c = 40 μM, read-out: Inhibition rate (%) B.
The subject of data set [11] is induced T cells (Con A 5 μg/mL). Put plainly: EdU proliferation assay, induced T cells. To be noted: c = 10 μM; relative to the model group. The data set is classed as cell-based, mouse. The protocol: as §3
In data set [12] the test system is induced B cells (LPS 15 μg/mL). The experiment in a line: EdU proliferation assay, induced B cells. The data set is classed as cell-based, mouse. The conditions noted are these: c = 10 μM; relative to the model group. How it is done: as §3
The next data set has as its system IL-17A. Put plainly: Cytokine analysis by ELISA of induced T cells: IL-17A. Format: cell-based, mouse. To be noted: 10 μM; ConA-induced T cells, 48 h; P < 0.01 vs. model. How it is done:
as §4

For the molecule `CCC1=Cc2c(occ(COC)c2=O)CC1` [Compound 10, 6-ethyl-3-(methoxymethyl)-7,8-dihydro-4H-chromen-4-one], the IC50 with HaCaT cells [1] is 30.9 ± 2.7 µM; in data set [4] (Mus musculus, Lymphocyte), 8 ± 0.7 µM; in [6], over 20 µM. Besides, in [2] (31.0 μM, P < 0.0001 vs. Con), the “NF-κB activation (ratio p-p65/p65)” value is “significantly attenuated NF-κB activation”. The CC50 in data set [3] was over 20 µM. Also, the “proliferation rates of HaCaT cells measured by EdU” value in the data set with HaCaT cells [5] is recorded as “significantly reduced”.

For the molecule `C[C@]1(CCO)CC[C@H]2C(=CC[C@@H]3[C@]2(C)CCC[C@]3(C)C(=O)O)C1` [Compound 15, 16-hydroxyisopimar-7-en-19-oic acid], the inhibition at 40 µM in data set [7] amounted to 28.8 ± 5.8%; in data set [10], 29 ± 12.2%. The IL-2 levels result with IL-2 is “significantly reduced”. Also, the “Cell validity (%)” value in the data set with lymphocytes [8] was 80.2 ± 1.8%; in the data set with lymphocytes [9], 89.9 ± 7.5%. In addition, in the data set with IFN-γ, the IFN-γ secretion result is “significant reduction; also recorded: significantly reduced”. Also, the inhibition at 20 µM was 23 ± 4.3% in data set [4] (Mus musculus, Lymphocyte, c = 20 μM, LPS-induced B lymphocytes, read-out: Inhibition rate (%) B) and 26.4 ± 6.3% in [6] (c = 20 μM, ConA-induced T lymphocytes, read-out: Inhibition rate (%) T).

For the molecule `CO[C@@H]1C=C2[C@@H]3CC[C@H]([C@H](C)/C=C/[C@H](C)C(C)C)[C@@]3(C)CC[C@@H]2[C@@]2(C)CC[C@H](O)C[C@]12O` [Compound 32, (3β,5α,6β,22E)-6-methoxyergosta-7,22-diene-3,5-diol], in [11], the “proliferation of induced T cells measured by EdU” value was “significantly suppressed the proliferation”. Besides, in the data set with IFN-γ, the IFN-γ secretion entry is given as “significant reduction; also recorded: significantly reduced”. The IC50 in the data set with HaCaT cells [1] was 27 ± 1.3 µM; in [4] (Mus musculus, Lymphocyte) it was 8 to 20 µM; in data set [4], 6 ± 0.3 µM; in data set [6], 3.1 ± 0.2 µM. In addition, in data set [2] (27.0 μM, P < 0.01 vs. Con), the “NF-κB activation (ratio p-p65/p65)” value is given as “significantly attenuated NF-κB activation”. Besides, in data set [12], the “proliferation of induced B cells measured by EdU” value is “significantly suppressed the proliferation”. Besides, the CC50 in data set [3] is over 20 µM. The IL-17A levels entry in the data set with IL-17A is reported as “markedly lowered; also recorded: inhibiting IL-17A secretion”. For the same molecule, in the data set with HaCaT cells [5], the “proliferation rates of HaCaT cells measured by EdU” value is on record as “significantly reduced”.

In general, CC50 refers to the concentration at which the toxic effect on the cells reaches its halfway point. Low values mean harm at low concentration, high ones better tolerance by the cells. By inhibition is commonly meant the relative decrease from the control value, in per cent.
